What was measured:
Assay type in all cases: cell-based, human
[1] = system: p21^Cip1/WAF1; assay: CDKN1A gene and p21^Cip1/WAF1 protein expression in PBs
Source text: Like p27^Kip1, p21^Cip1/WAF1 is a tight-binding inhibitor of CDKs and inhibits cell cycle entry into S phase (Elledge et al., 1996). Plasmablast commitment leads to a significant increase of the CDKN1A gene, which encodes p21^Cip1/WAF1, and this independently to the expression of TP53 (data not shown). […] We then wondered whether PIM2 could modify p21^Cip1/WAF1 expression. […] To address this scenario, we developed endogenous protein immunoprecipitation (IP) and found in generated PBs and XG21 cell line as well that PIM2, p21^Cip1/WAF1 and HSP90β form a cytoplasmic multiprotein complex (data not shown).

[2] = system: plasmablasts (PB); assay: Generation of plasmablasts at D6 in the in vitro B cell differentiation model (flow cytometry); conditions: SSO at 2 μM added at D4
Protocol: FIG. 1. Specific PIM2 inhibition affects the generation of plasmablasts • A. Diagram explaining SSO-PIM2 action. It binds to the second exon of the gene PIM2 leading in a skip of this exon during transcription and finally results to a frame shift and created an early stop-codon during translation. The protein is so a non-functional truncated protein. • B. Activated B cells were treated at D4 with an increasing dose of SSO-PIM2 and SSO-CTL (control condition) and recovered 48 hours later (at D6). PIM2 mRNA residual expression compared to the control condition adjust at 100% (mean±SD, n=3) and agarose gel of PIM2 PCR, showing exon skipping. • C. At D4, activated B cells were treated with SSO-PIM2 and SSO-CTL (control condition) at 2 μM. CD23+ aBC and PB were sorted at D6. PIM2 mRNA relative expression (mean±SD, n=4) (left) and PIM2 protein expression by western blot (middle) and immunofluorescence (right) after PIM2 inhibition. • D-E. Decrease of PB generation after PIM2 inhibition. Cells were treated with SSO-PIM2 at 2 μM (D) or increase dose of the PIM inhibitor AZD1208 (PIMi as indicated, in μM) (E) and their control condition (SSO-CTL and DMSO respectively). The untreated condition is referred as “NT” (=no treatment). Left: Absolute number of PB obtained at D6 after PIM2 inhibition. […] Right: Proportion of PB evaluated at D6 by flow cytometry after treatment with SSO-PIM2 at 2 μM. […]

[3] = system: PIM2; assay: PIM2 expression in in vitro differentiated activated B cells / plasmablasts after SSO treatment (mRNA, PCR, western blot, immunofluorescence)
Protocol: FIG. 1. Specific PIM2 inhibition affects the generation of plasmablasts • A. Diagram explaining SSO-PIM2 action. It binds to the second exon of the gene PIM2 leading in a skip of this exon during transcription and finally results to a frame shift and created an early stop-codon during translation. The protein is so a non-functional truncated protein. • B. Activated B cells were treated at D4 with an increasing dose of SSO-PIM2 and SSO-CTL (control condition) and recovered 48 hours later (at D6). PIM2 mRNA residual expression compared to the control condition adjust at 100% (mean±SD, n=3) and agarose gel of PIM2 PCR, showing exon skipping. • C. At D4, activated B cells were treated with SSO-PIM2 and SSO-CTL (control condition) at 2 μM. CD23+ aBC and PB were sorted at D6. PIM2 mRNA relative expression (mean±SD, n=4) (left) and PIM2 protein expression by western blot (middle) and immunofluorescence (right) after PIM2 inhibition. • D-E. Decrease of PB generation after PIM2 inhibition. Cells were treated with SSO-PIM2 at 2 μM (D) or increase dose of the PIM inhibitor AZD1208 (PIMi as indicated, in μM) (E) and their control condition (SSO-CTL and DMSO respectively). The untreated condition is referred as “NT” (=no treatment). Left: Absolute number of PB obtained at D6 after PIM2 inhibition. Data are representative with bars at mean±SD, n=6. Right: Proportion of PB evaluated at D6 by flow cytometry after treatment with SSO-PIM2 at 2 μM. Data are representative of six independent experiments. • F. Transcription factors (IRF4, PRDM1, XBPIS, BACH2, BCL6, SPIB, IRF8 and PAX5) mRNA relative expression after specific PIM2 inhibition. Data are representative with bars at mean±SD, n=4.
To identify genes whose transcription was acutely regulated during the final commitment step we developed our previously described in vitro differentiation model system on human naive B cells (NBCs) giving at day-6 (D6) four cell populations that were explored transcriptionally (data not shown) (Caron et al., 2015; Le Gallou et al., 2012; Pignarre et al., 2021). […]

## 5′-CCTCATGACGGATACCTGGAGTC-3′ (all phosphorodiamidate morpholino (PMO)) [SSO-PIM2]
[1]
  CDKN1A gene upregulation in PBs: did not interfere with CDKN1A gene upregulation
[1]; PBs
  p21^Cip1/WAF1 protein expression and localization: decreased dramatically its cytoplasmic expression without nuclear relocalization
[2]
  generated PB at D6: severe decrease in generated PB
[3]; 2 μM
  PIM2 knockdown: near-knockout condition for PIM2
  duration of PIM2 near-knockout: up to 96 h
[3]; D6 collected PBs, increasing dose added at D4, 48 hours
  inhibition of PIM2 expression: dose-dependent inhibition of PIM2 expression
